Experimental data taken from patent publication US20260085053A1, “BENZOFURAN DERIVATIVES AS SIK INHIBITORS AND THE USE THEREOF” (BEONE MEDICINES I GMBH, priority 2023, published 2026).

Assays:
[1] = molecular target: T1, SIK2 kinase (full length, Thermo Fisher) (Homo sapiens, UniProt Q9H0K1); assay: Biochemical activities determination for SIK2 protein (TR-FRET); details: 80 uM ATP, 0.5 μM substrate
T1 construct: SIK2 kinase (full length, Thermo Fisher); purchased Thermo Fisher
Procedure: 2. Biochemical Activities Determination for SIK2 Protein
(§1) Compounds were tested for inhibition of SIK2 kinase (full length, Thermo Fisher) in assays based on the time-resolved fluorescence-resonance energy transfer (TR-FRET) methodology. The assays were carried out in 384-well low volume white plates in a reaction mixture containing SIK2 kinase, 80 uM ATP, 0.5 μM SIK1 substrate and 0-10 μM compound in buffer containing 25 mM Tris, 0.01% Trition X-100, 0.5 mM EGTA, 5 mM MgCl2, 2.5 mM DTT, pH=7.5. The kinase was incubated with compounds for 60 minutes at room temperature and the reaction was initiated by the addition of ATP and STK1 substrate. After reaction at room temperature for 180 minutes, an equal volume of stop/detection solution was added according to the manufacture's instruction (CisBio Bioassays). The stop/detection solution contained STK Antibody-Cryptate and XL665-conjugated streptavidin (Cat: 62ST1PEC, Cisbio) in Detection Buffer (Cat: 62SDBRDF, Cisbio). Plates were sealed and incubated at room temperature for overnight, and the TR-FRET signals (ratio of fluorescence emission at 665 nm over emission at 620 nm with excitation at 337 nm wavelength) were recorded on a PHERAstar FS plate reader (BMG Labtech). Phosphorylation of STK1 substrate led to the binding of STK Antibody-Cryptate to the biotinylated STK1 substrate, which places fluorescent donor (Eu^3+ crypate) in close proximity to the accepter (Streptavidin-XL665), thus resulting in a high degree of fluorescence resonance energy transfer from the donor fluorophore (at 620 nm) to the acceptor fluorophore (at 665 nm). […] The IC50 for each compound was derived from fitting the data to the four-parameter logistic equation by Dotmatics.

[2] = molecular target: T2, SIK3 kinase (aa59-365, Thermo Fisher) (Homo sapiens, UniProt Q9Y2K2); assay: Biochemical activities determination for SIK3 protein (TR-FRET); details: 125 uM ATP, 0.5 μM STK1 substrate
T2 construct: SIK3 kinase (aa59-365, Thermo Fisher); purchased Thermo Fisher
Procedure: 3. Biochemical Activities Determination for SIK3 Protein
Compounds were tested for inhibition of SIK3 kinase (aa59-365, Thermo Fisher) in assays based on the time-resolved fluorescence-resonance energy transfer (TR-FRET) methodology. The assays were carried out in 384-well low volume white plates in a reaction mixture containing SIK3 kinase, 125 uM ATP, 0.5 μM STK1 substrate and 0-10 μM compound in buffer containing 25 mM Tris, 0.01% Trition X-100, 0.5 mM EGTA, 5 mM MgCl2, 2.5 mM DTT, PH=7.5. The kinase was incubated with compound for 60 minutes at room temperature and the reaction was initiated by the addition of ATP and STK1 substrate. After reaction at room temperature for 180 minutes, an equal volume of stop/detection solution was added according to the manufacture's instruction (CisBio Bioassays). The stop/detection solution contained STK Antibody-Cryptate and XL665-conjugated streptavidin (Cat: 62ST1PEC, Cisbio) in Detection Buffer (Cat: 62SDBRDF, Cisbio). Plates were sealed and incubated at room temperature for overnight, and the TR-FRET signals (ratio of fluorescence emission at 665 nm over emission at 620 nm with excitation at 337 nm wavelength) were recorded on a PHERAstar FS plate reader (BMG Labtech). Phosphorylation of STK1 substrate led to the binding of STK Antibody-Cryptate to the biotinylated STK1 substrate, which places fluorescent donor (Eu^3+ crypate) in close proximity to the accepter (Streptavidin-XL665), thus resulting in a high degree of fluorescence resonance energy transfer from the donor fluorophore (at 620 nm) to the acceptor fluorophore (at 665 nm). […] The IC50 for each compound was derived from fitting the data to the four-parameter logistic equation by Dotmatics.

[3] = molecular target: T3, SIK1 kinase (aa1-303, Thermo Fisher) (Homo sapiens, UniProt P57059); assay: Biochemical activities determination for SIK1 protein (TR-FRET); details: 110 uM ATP, 0.5 μM STK1 substrate
T3 construct: SIK1 kinase (aa1-303, Thermo Fisher); purchased Thermo Fisher
Procedure: 1. Biochemical Activities Determination for SIK1 Protein
as §1, with “of SIK1” for “of SIK2”, “kinase (aa1-303,” for “kinase (full length,”, “containing SIK1” for “containing SIK2”, “kinase, 110” for “kinase, 80”, “μM STK1” for “μM SIK1”, “biotinylated […]” for “biotinylated STK1”

T3 sequence (P57059 1-303): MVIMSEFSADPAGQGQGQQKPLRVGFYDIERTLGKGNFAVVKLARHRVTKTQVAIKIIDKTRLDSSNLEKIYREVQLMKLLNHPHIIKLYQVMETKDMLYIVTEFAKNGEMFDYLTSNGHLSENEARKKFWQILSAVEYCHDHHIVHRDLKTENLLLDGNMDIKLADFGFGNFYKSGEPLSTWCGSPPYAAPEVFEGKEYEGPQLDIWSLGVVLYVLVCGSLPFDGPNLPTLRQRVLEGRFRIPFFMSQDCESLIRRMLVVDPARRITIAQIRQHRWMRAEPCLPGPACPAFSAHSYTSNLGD
T2 sequence (Q9Y2K2 59-365): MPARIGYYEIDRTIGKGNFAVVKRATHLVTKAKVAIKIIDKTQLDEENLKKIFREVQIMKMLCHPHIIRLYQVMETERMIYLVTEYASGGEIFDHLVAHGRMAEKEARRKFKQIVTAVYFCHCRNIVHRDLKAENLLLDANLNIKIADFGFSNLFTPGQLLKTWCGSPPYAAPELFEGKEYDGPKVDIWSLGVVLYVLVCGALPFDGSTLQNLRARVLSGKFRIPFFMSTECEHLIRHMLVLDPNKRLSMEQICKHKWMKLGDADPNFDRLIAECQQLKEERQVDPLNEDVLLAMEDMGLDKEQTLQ
T1 sequence (Q9H0K1 whole entry): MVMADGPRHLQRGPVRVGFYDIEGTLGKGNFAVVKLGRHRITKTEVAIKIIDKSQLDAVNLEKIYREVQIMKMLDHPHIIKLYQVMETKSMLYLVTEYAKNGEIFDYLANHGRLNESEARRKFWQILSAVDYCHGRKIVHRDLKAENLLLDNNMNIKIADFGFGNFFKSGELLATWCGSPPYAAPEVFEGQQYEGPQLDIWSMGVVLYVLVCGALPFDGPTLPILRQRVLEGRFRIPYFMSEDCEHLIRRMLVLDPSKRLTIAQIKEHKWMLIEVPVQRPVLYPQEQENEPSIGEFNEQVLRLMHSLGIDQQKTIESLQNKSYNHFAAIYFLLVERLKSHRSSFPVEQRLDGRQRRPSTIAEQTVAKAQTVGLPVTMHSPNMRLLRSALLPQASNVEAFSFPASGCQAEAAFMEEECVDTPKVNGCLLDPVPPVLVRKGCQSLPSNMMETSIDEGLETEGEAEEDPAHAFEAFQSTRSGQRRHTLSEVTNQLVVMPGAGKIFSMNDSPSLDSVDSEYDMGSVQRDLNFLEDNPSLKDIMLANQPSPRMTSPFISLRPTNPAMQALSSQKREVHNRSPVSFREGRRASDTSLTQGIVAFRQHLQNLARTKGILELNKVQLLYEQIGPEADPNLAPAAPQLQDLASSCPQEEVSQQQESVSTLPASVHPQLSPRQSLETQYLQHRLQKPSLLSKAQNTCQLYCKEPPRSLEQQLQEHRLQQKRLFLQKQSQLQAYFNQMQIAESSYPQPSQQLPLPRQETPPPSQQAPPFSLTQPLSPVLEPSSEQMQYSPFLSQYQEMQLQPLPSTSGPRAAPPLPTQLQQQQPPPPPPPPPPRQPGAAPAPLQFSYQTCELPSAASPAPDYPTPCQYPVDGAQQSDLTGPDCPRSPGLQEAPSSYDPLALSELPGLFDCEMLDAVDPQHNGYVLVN

SMILES | IC50 [1] [nM] | IC50 [2] [nM] | IC50 [3] [nM]
COc1cc(-c2coc3cc(-c4cnn(C)c4)ccc23)cc2c1C(=O)N(CC(F)(F)F)CCO2 [Compound 28, 6-methoxy-8-(6-(1-methyl-1H-pyrazol-4-yl)benzofuran-3-yl)-4-(2,2,2-trifluoroethyl)-3,4-dihydrobenzo[f][1,4]oxazepin-5 (2H)-one] | 140 | 281 | 3940
COc1cc(-c2coc3cc(-c4cnn(C)c4)ccc23)cc2c1C(=O)N(CC(F)(F)F)[C@@H](C)C2 [Compound 29A, (S)-8-methoxy-3-methyl-6-(6-(1-methyl-1H-pyrazol-4-yl)benzofuran-3-yl)-2-(2,2,2-trifluoroethyl)-3,4-dihydroisoquinolin-1 (2H)-one] | 15 | 42 | 216
COc1cc(-c2coc3cc(-c4cnn(C)c4)ccc23)cc2c1C(=O)N(CC(F)(F)F)[C@H](C)C2 [Compound 29B, (R)-8-methoxy-3-methyl-6-(6-(1-methyl-1H-pyrazol-4-yl)benzofuran-3-yl)-2-(2,2,2-trifluoroethyl)-3,4-dihydroisoquinolin-1 (2H)-one] | 178 | 374 | 5980
COc1cc(-c2coc3cc(-c4cnn(C)c4)ccc23)cc2c1C(=O)N(Cc1ccncc1)CC2 [Compound 30, 8-methoxy-6-(6-(1-methyl-1H-pyrazol-4-yl)benzofuran-3-yl)-2-(pyridin-4-ylmethyl)-3,4-dihydroisoquinolin-1 (2H)-one] | 531 | 1110 | 2610
COc1cc(-c2coc3cc(-c4cnn(C)c4)ccc23)cc2c1C(=O)N(Cc1ccccc1)CC2 [Compound 31, 2-benzyl-8-methoxy-6-(6-(1-methyl-1H-pyrazol-4-yl)benzofuran-3-yl)-3,4-dihydroisoquinolin-1 (2H)-one] | 673 | 882 | 5450
Cn1cc(-c2ccc3c(-c4ccc(C#N)cc4)coc3c2)cn1 [Compound 32, 4-(6-(1-methyl-1H-pyrazol-4-yl)benzofuran-3-yl)benzonitrile] | 96 | 829 | 1880
COc1cc(-c2coc3cc(-c4cnn(C5CN(C)C5)c4)ccc23)cc(OC(F)F)c1C(=O)N[C@@H]1C[C@@H]1F [Compound 37, 2-(difluoromethoxy)-N-((1R,2S)-2-fluorocyclopropyl)-6-methoxy-4-(6-(1-(1-methylazetidin-3-yl)-1H-pyrazol-4-yl)benzofuran-3-yl)benzamide] | 1.4 | 4.2 | 25
O=C1c2c(cc(-c3coc4cc(-c5cnn(C6CCOC6)c5)ccc34)cc2OC(F)F)CCN1CC(F)(F)F (stereo not drawn) [Compound 40, 8-(difluoromethoxy)-6-(6-(1-(tetrahydrofuran-3-yl)-1H-pyrazol-4-yl)benzofuran-3-yl)-2-(2,2,2-trifluoroethyl)-3,4-dihydroisoquinolin-1 (2H)-one] | 14 | 31 | 537
O=C1c2c(cc(-c3coc4cc(-c5cnn(C6CNC6)c5)ccc34)cc2OC(F)F)CCN1CC(F)(F)F [Compound 42, 6-(6-(1-(azetidin-3-yl)-1H-pyrazol-4-yl)benzofuran-3-yl)-8-(difluoromethoxy)-2-(2,2,2-trifluoroethyl)-3,4-dihydroisoquinolin-1 (2H)-one] | 25 | 115 | 1590

Results, then the molecule that gave them:

IC50 [1] [nM] | IC50 [2] [nM] | IC50 [3] [nM] | SMILES
82 | 156 | 9100 | COc1cc(-c2coc3cc(-c4cnn(C)c4)ccc23)cc2c1C(=O)N(CC(F)(F)F)CC2(C)C [Compound 33, 8-methoxy-4,4-dimethyl-6-(6-(1-methyl-1H-pyrazol-4-yl)benzofuran-3-yl)-2-(2,2,2-trifluoroethyl)-3,4-dihydroisoquinolin-1 (2H)-one]
239 | 420 | 2680 | COc1cc(-c2coc3cc(-c4cnn(C)c4)ccc23)cc(OC)c1-c1nnc(C)o1 [Compound 34, 2-(2,6-dimethoxy-4-(6-(1-methyl-1H-pyrazol-4-yl)benzofuran-3-yl)phenyl)-5-methyl-1,3,4-oxadiazole]
132 | 255 | 2080 | COc1cc(-c2coc3cc(-c4cnn(C)c4)ccc23)cc(OC)c1-c1nnc(C2CC2)o1 [Compound 35, 2-cyclopropyl-5-(2,6-dimethoxy-4-(6-(1-methyl-1H-pyrazol-4-yl)benzofuran-3-yl)phenyl)-1,3,4-oxadiazole]
144 | 305 | 2090 | CCc1nnc(-c2c(OC)cc(-c3coc4cc(-c5cnn(C)c5)ccc34)cc2OC)o1 [Compound 36, 2-(2,6-dimethoxy-4-(6-(1-methyl-1H-pyrazol-4-yl)benzofuran-3-yl)phenyl)-5-ethyl-1,3,4-oxadiazole]
1.7 | 3.9 | 24 | COc1cc(-c2coc3cc(-c4cnn(C5CCN(C)C5)c4)ccc23)cc(OC(F)F)c1C(=O)N[C@@H]1C[C@@H]1F (stereo partly drawn) [Compound 38, 2-(difluoromethoxy)-N-((1R,2S)-2-fluorocyclopropyl)-6-methoxy-4-(6-(1-(1-methylpyrrolidin-3-yl)-1H-pyrazol-4-yl)benzofuran-3-yl)benzamide]
1.7 | 4.1 | 25 | COc1cc(-c2coc3cc(-c4cnn(C5CCN(C)CC5)c4)ccc23)cc(OC(F)F)c1C(=O)N[C@@H]1C[C@@H]1F [Compound 39, 2-(difluoromethoxy)-N-((1R,2S)-2-fluorocyclopropyl)-6-methoxy-4-(6-(1-(1-methylpiperidin-4-yl)-1H-pyrazol-4-yl)benzofuran-3-yl)benzamide]
33 | 69 | 1710 | O=C1c2c(cc(-c3coc4cc(-c5cnn(C6CCOCC6)c5)ccc34)cc2OC(F)F)CCN1CC(F)(F)F [Compound 41, 8-(difluoromethoxy)-6-(6-(1-(tetrahydro-2H-pyran-4-yl)-1H-pyrazol-4-yl)benzofuran-3-yl)-2-(2,2,2-trifluoroethyl)-3,4-dihydroisoquinolin-1 (2H)-one]
